Experimental data: US20170150719A1, “FUNGICIDAL PYRAZOLES AND THEIR MIXTURES” (E I DU PONT DE NEMOURS AND COMPANY, priority 2010, published 2017)

Key:
[1] = system: Alternaria solani; test: Test B: tomato early blight, preventive spray on tomato seedlings, visual disease rating
[2] = Single oral dose pharmacokinetics in rats, plasma and fat by LC/MS (fat:plasma distribution); type: in vivo; settings: single oral dose via gavage, compared to corresponding compounds wherein R^2 is other than H
Experimental: The pharmacokinetic properties of compounds of Formula 1 can be measured using a wide variety of assay protocols known in the science of pharmacology. In one illustrative method involving a single oral dose, three male and three female rats receive a single dose of a test substance via oral gavage. Approximately 0.25 mL of blood is collected via tail vein immediately prior to dosing, and then at 0.25, 0.5, 1, 2, 4, 8, 12, 24 h and every 24 h thereafter until sacrifice. At sacrifice, fat is also collected to determine the fat:plasma ratio at sacrifice. Blood is collected into tubes that contain ethylenediaminetetracetic acid (EDTA) and centrifuged at 2500×g in order to separate plasma from blood cells. The plasma is then extracted by protein precipitation using, for example, acetonitrile and a protein precipitation plate (e.g., Strata Impact Protein Precipitation Plate, part number CEO-7565 of Phenomenex, Torrance, Calif., U.S.A.) following directions provided for the plate. Alternatively, the plasma is extracted just with acetonitrile, vortexed (i.e. mixed using a vortex mixer), and centrifuged to pellet the proteins. After removal of the proteins, the plasma is analyzed for parent compound and/or metabolites by liquid chromatography-mass spectrometry (LC/MS). The fat is homogenized and extracted by an organic solvent such as acetonitrile. The extract is then analyzed for parent compound and/or metabolites by LC/MS. The plasma pharmacokinetic data is then analyzed using nonlinear modeling software (e.g., WinNonlin™ from Pharsight, Cary, N.C., U.S.A.) to determine half-life of the administered compound in plasma, the time after administration when the maximum plasma concentration is reached (Tmax), the maximum plasma concentration (Cmax) and the area under the plasma concentration curve (AUC). As analysis of fat requires rat sacrifice, fat data is obtained at single time points (i.e. the time of rat sacrifice). However, by using multiple rats sacrificed after different intervals from time of dosing, such parameters as Cmax for fat are determined.

[3] = system: Puccinia recondita f. sp. tritici; test: Test G: wheat leaf rust, spray after inoculation (curative) on wheat seedlings, visual disease rating; type: in vivo; settings: 100 = 100% disease control
Source text: (§1) A hyphen (-) indicates no test results.

[4] = system: Phytophthora infestans; test: whole plant or invertebrate; type: in vivo; settings: tomato late blight, 100 = 100% disease control
[5] = system: Septoria nodorum; test: Test E: Septoria glume blotch, preventive spray on wheat seedlings, visual disease rating; settings: 100 = 100% disease control
[6] = system: Puccinia recondita f. sp. tritici; test: Test H: wheat leaf rust, preventive spray on wheat seedlings, visual disease rating; settings: 100 = 100% disease control, 0 = no disease control
[7] = system: Blumeria graminis f. sp. tritici; test: Test I: wheat powdery mildew, preventive spray on wheat seedlings, visual disease rating; settings: 100 = 100% disease control, 0 = no disease control relative to the controls
[8] = system: Botrytis cinerea; test: Test A: tomato Botrytis, preventive spray on tomato seedlings, visual disease rating; settings: 100 = 100% disease control, 0 = no disease control relative to the controls
[9] = system: Septoria tritici; test: Test F: wheat leaf blotch, preventive spray on wheat seedlings, visual disease rating; type: in vivo; settings: 100 = 100% disease control, 0 = no disease control relative to the controls
Source text: as §1

[10] = system: Septoria tritici; test: Tests N1 and N2: growth inhibition of Septoria tritici on solid medium in 96-well plates, absorbance at 600 nm, observed and Colby expected; type: cell-based; settings: Zymoseptoria tritici
Source text: Tests N1 and N2 involved evaluation of mixtures of Compound 81 with 2-[(3-bromo-8-methyl-6-quinolinyl)oxy]-N-(1,1-dimethyl-2-propyn-1-yl)-2-(methylthio)acetamide (Compound A1) and 2-[(3-bromo-6-quinolinyl)oxy]-N-(1,1-dimethylethyl)butanamide (Compound A2), respectively, for inhibiting the growth of Septoria tritici (the causal agent of wheat leaf blotch). The general protocol for preparing test compositions was as follows. Compound 81 (Tests N1 and N2), Compound A1 (Test N1) and Compound A2 (Test N2) were obtained as unformulated, technical-grade materials. Unformulated test compounds were first dissolved in DMSO at the appropriate concentration to provide the desired concentration (in μM) after mixing with the fungal growth medium in the wells of 96-well plates containing 200 μL fungal growth medium per well. The ranges of compound concentrations were chosen to span a range of inhibitory activity from 0 to near 100% to identify any synergistic action when Septoria tritici was treated with compounds added in combination. The DMSO solutions of the test compounds were added to the wells prior to addition of the fungal growth medium.
The fungal growth solid medium was prepared by forming an aqueous mixture containing dipotassium hydrogen phosphate (3.0 g/L), potassium dihydrogen phosphate (4.0 g/L), sodium chloride (0.5 g/L), ammonium chloride (1.0 g/L), magnesium sulfate heptahydrate ([…]) and calcium chloride dihydrate (0.01 g/L), also containing 1 mL/L of a trace element solution (manganese sulfate hydrate (0.1 mg/mL), zinc sulfate heptahydrate (0.2 mg/mL), copper(II) sulfate pentahydrate (0.2 mg/mL), iron(II) sulfate heptahydrate (0.2 mg/mL), sodium molybdate dihydrate (0.1 mg/mL), cobalt(II) sulfate heptahydrate (0.06 mg/mL), boric acid (0.08 mg/mL)), and supplemented with 50 μL/L of a biotin stock solution (0.1 mg/mL). The pH was adjusted to 6.8 with aqueous 1 M sodium carbonate solution. The mixture was further supplemented with 1 g/L of yeast extract, and GELRITE gellan gum (Kelco) (4 g/L) was added. Sufficient water was added to bring the volume to 90% of final volume (e.g., 900 mL volume for preparation of 1 L of fungal growth medium). The mixture was autoclaved. On cooling to 60° C., 100 mL/L of aqueous dextrose solution (10 g/L), 500 μL/L of aqueous ampicillin solution (100 mg/mL) and 500 μL/L of rifampicin solution (10 mg/mL in DMSO) were added to provide the final volume of fungal growth medium, which was then dispensed while still warm using a microliter pipette to the wells of the 96-well plates. The dispensed fungal growth medium in each well was agitated using the tip of the dispensing pipette to mix it with the DMSO solution containing the test compounds.
After the fungal growth medium in the wells had cooled to room temperature and solidified, the top surface of the growth medium in each well was inoculated with 20 μL of a suspension of fungus containing 8×10^4 cells. Following a 2 h period of drying in a sterile hood, plates were placed in a dark incubator at 25° C. for 5 d.
Fungal growth was assessed on a plate reader set to measure absorbance of 600 nm light. The percent growth inhibition observed (Obsd.) in Tests N1 and N2, as well as the percent growth inhibition expected (Exp.) from calculation using the Colby equation, are listed in Tables L and M, respectively.

[11] = system: Rhizoctonia solani; test: Test D: turf brown patch, preventive spray on creeping bent grass seedlings, disease rating; settings: 100 = 100% disease control, 0 = no disease control relative to the controls
Experimental: General protocol for preparing test suspensions for Tests A-I: the test compounds were first dissolved in acetone in an amount equal to 3% of the final volume and then suspended at the desired concentration (in ppm) in acetone and purified water (50/50 mix by volume) containing 250 ppm of the surfactant Trem® 014 (polyhydric alcohol esters). The resulting test suspensions were then used in Tests A-I. Each test was conducted in triplicate, and the results were averaged. Spraying a 200 ppm test suspension to the point of run-off on the test plants was the equivalent of a rate of about 800 g/ha. Unless otherwise indicated, the rating values indicate a 200 ppm test suspension was used. (An asterisk “*” next to the rating value indicates a 40 ppm test suspension was used.)
The test suspension was sprayed to the point of run-off on creeping bent grass (Agrostis sp.) seedlings. The following day the seedlings were inoculated with a bran and mycelial slurry of Rhizoctonia solani (the causal agent of turf brown patch) and incubated in a saturated atmosphere at 27° C. for 48 h, and then moved to a growth chamber at 27° C. for 3 days, after which time disease ratings were made.

Cc1nn(C)c(Nc2c(F)cccc2Cl)c1-c1ccc(F)cc1Cl [Compound 239, 4-(2-chloro-4-fluorophenyl)-N-(2-chloro-6-fluorophenyl)-1,3-dimethyl-1H-pyrazol-5-amine]
Test B rating (% disease control) ([1]; tomato early blight, preventive spray, 100 = 100% disease control, rating without asterisk): 100% | distribution into fat [2]: significantly diminished distribution into fat | Test G rating (% disease control) ([3]; spray after inoculation, rating without asterisk): 100% | Test C rating (% disease control) ([4]; preventive spray, rating without asterisk): 0% | melting point: 166 to 168 °C | Test E rating (% disease control) ([5]; Septoria glume blotch on wheat, preventive spray, rating without asterisk): 99%

Cc1nn(C)c(Nc2c(F)cccc2Br)c1-c1ccc(F)cc1Br [Compound 244, 4-(2-bromo-4-fluorophenyl)-N-(2-bromo-6-fluorophenyl)-1,3-dimethyl-1H-pyrazol-5-amine]
melting point: 154 to 156 °C

Cc1nn(C)c(Nc2c(F)cccc2Br)c1-c1ccc(F)cc1F [Compound 245, N-(2-bromo-6-fluorophenyl)-4-(2,4-difluorophenyl)-1,3-dimethyl-1H-pyrazol-5-amine]
melting point: 149 to 151 °C

Cc1nn(C)c(Nc2c(F)cc(F)cc2Cl)c1-c1ccc(C#N)cc1F [Compound 238, 4-[5-[(2-chloro-4,6-difluorophenyl)amino]-1,3-dimethyl-1H-pyrazol-4-yl]-3-fluorobenzonitrile]
melting point: 177 to 179 °C

Cc1nn(C)c(Nc2ccc(Cl)cc2F)c1-c1c(F)cc(C#N)cc1F [Compound 40, 4-[5-[(4-chloro-2-fluorophenyl)amino]-1,3-dimethyl-1H-pyrazol-4-yl]-3,5-difluorobenzonitrile]
pest or weed control at 200 µg/mL ([1]; Alternaria solani, in Solanum lycopersicum, read-out: Test B rating (disease control)): 99% | pest or weed control at 200 µg/mL ([6]; read-out: Test H rating (disease control), wheat leaf rust, sprayed the day before inoculation): 100% | pest or weed control at 200 µg/mL ([3]; sprayed after inoculation, 0 = no disease control): 63% | pest or weed control at 200 µg/mL ([7]; Blumeria graminis, in Triticum aestivum, read-out: Test I rating (disease control), wheat powdery mildew): 100% | pest or weed control at 200 µg/mL ([8]; Botrytis cinerea, in Solanum lycopersicum, read-out: Test A rating (disease control), tomato Botrytis): 99% | pest or weed control at 200 µg/mL ([9]; Zymoseptoria tritici): 100% | melting point: 93 to 95 °C | pest or weed control at 200 µg/mL ([5]; Parastagonospora nodorum, in Triticum aestivum, read-out: Test E rating (disease control), Septoria glume blotch, 0 = no disease control relative to the controls): 100%

Cc1nn(C)c(Nc2c(F)cccc2Br)c1-c1ccc(F)cc1Cl [Compound 241, N-(2-bromo-6-fluorophenyl)-4-(2-chloro-4-fluorophenyl)-1,3-dimethyl-1H-pyrazol-5-amine]
distribution into fat [2]: significantly diminished distribution into fat

CCC(Oc1ccc2ncc(Br)cc2c1)C(=O)NC(C)(C)C (centres unmarked) [Compound A2, 2-[(3-bromo-6-quinolinyl)oxy]-N-(1,1-dimethylethyl)butanamide, reference compound]
inhibition at 0.032 µM ([10]; Compound A2 alone 0.032 μM, read-out: % inhibition Obsd. (Test N2)): 0% | inhibition at 0.16 µM ([10]; Compound A2 alone 0.16 μM, read-out: % inhibition Obsd. (Test N2)): 6.5% | inhibition at 0.8 µM ([10]; Compound A2 alone 0.8 μM, read-out: % inhibition Obsd. (Test N2)): 11.5% | inhibition at 4 µM ([10]; Compound A2 alone 4 μM, read-out: % inhibition Obsd. (Test N2)): 95% | inhibition at 20 µM ([10]; Compound A2 alone 20 μM, read-out: % inhibition Obsd. (Test N2)): 96%

Cc1nn(C)c(Nc2ccccc2F)c1-c1ccc(F)cc1Cl [compound 1]
Test B rating (disease control) ([1]; tomato early blight, 100 = 100% disease control, 0 = no disease control relative to the controls): 93% | Test H rating (disease control) ([6]; wheat leaf rust, sprayed the day before inoculation): 99% | Test I rating (disease control) ([7]; wheat powdery mildew): 100% | Test A rating (disease control) ([8]; tomato Botrytis): 99% | Test F rating (disease control) [9]: 100% | Test C rating (disease control) ([4]; 0 = no disease control relative to the controls): 0% | Test E rating (disease control) ([5]; Septoria glume blotch, 0 = no disease control relative to the controls): 0% | Test D rating (disease control) [11]: 99%

Cc1nn(C)c(Nc2c(F)cccc2Br)c1-c1c(F)cccc1F [Compound 247, N-(2-bromo-6-fluorophenyl)-4-(2,6-difluorophenyl)-1,3-dimethyl-1H-pyrazol-5-amine]
melting point: 127 to 129 °C

Cc1nn(C)c(Nc2c(F)cccc2Cl)c1-c1ccc(F)cc1Br [Compound 240, 4-(2-Bromo-4-fluorophenyl)-N-(2-chloro-6-fluorophenyl)-1,3-dimethyl-1H-pyrazol-5-amine]
distribution into fat [2]: significantly diminished distribution into fat

C#CC(C)(C)NC(=O)C(Oc1cc(C)c2ncc(Br)cc2c1)SC (centres unmarked) [Compound A1, 2-[(3-bromo-8-methyl-6-quinolinyl)oxy]-N-(1,1-dimethyl-2-propyn-1-yl)-2-(methylthio)acetamide, reference compound]
inhibition at 0.00032 µM ([10]; Compound A1 alone 0.00032 μM, read-out: % inhibition Obsd. (Test N1)): 3% | inhibition at 0.0016 µM ([10]; Compound A1 alone 0.0016 μM, read-out: % inhibition Obsd. (Test N1)): 5% | inhibition at 0.008 µM ([10]; Compound A1 alone 0.008 μM, read-out: % inhibition Obsd. (Test N1)): 14.5% | inhibition at 0.04 µM ([10]; Compound A1 alone 0.04 μM, read-out: % inhibition Obsd. (Test N1)): 97% | inhibition at 0.2 µM ([10]; Compound A1 alone 0.2 μM, read-out: % inhibition Obsd. (Test N1)): 98%
